# Measurements: ChEMBL document CHEMBL4808226, “Optimization of the Urea Linker of Triazolopyridazine MMV665917 Results in a New Anticryptosporidial Lead with Improved Potency and Predicted hERG Safety Margin” (J Med Chem, 2021)
# Activity calls are given as the source filed them. The rule behind the calls is not given here.
# Assays:
# [1] = test system: Cryptosporidium parvum; test: Anti-cryptosporidial activity against Cryptosporidium parvum infected in HCT-8 cells pre-infected for 3 hrs followed by compound treatment and measured after 45 hrs by fluorescence microscopy analysis; type: functional, organism-based
# [2] = molecular target: T1, hERG (KCNH2) (Homo sapiens, UniProt Q12809); test: Displacement of [3H]-dofetilide from human ERG at 10 uM relative to control; conditions: probe [3H]-dofetilide
# T1 sequence (Q12809 whole entry): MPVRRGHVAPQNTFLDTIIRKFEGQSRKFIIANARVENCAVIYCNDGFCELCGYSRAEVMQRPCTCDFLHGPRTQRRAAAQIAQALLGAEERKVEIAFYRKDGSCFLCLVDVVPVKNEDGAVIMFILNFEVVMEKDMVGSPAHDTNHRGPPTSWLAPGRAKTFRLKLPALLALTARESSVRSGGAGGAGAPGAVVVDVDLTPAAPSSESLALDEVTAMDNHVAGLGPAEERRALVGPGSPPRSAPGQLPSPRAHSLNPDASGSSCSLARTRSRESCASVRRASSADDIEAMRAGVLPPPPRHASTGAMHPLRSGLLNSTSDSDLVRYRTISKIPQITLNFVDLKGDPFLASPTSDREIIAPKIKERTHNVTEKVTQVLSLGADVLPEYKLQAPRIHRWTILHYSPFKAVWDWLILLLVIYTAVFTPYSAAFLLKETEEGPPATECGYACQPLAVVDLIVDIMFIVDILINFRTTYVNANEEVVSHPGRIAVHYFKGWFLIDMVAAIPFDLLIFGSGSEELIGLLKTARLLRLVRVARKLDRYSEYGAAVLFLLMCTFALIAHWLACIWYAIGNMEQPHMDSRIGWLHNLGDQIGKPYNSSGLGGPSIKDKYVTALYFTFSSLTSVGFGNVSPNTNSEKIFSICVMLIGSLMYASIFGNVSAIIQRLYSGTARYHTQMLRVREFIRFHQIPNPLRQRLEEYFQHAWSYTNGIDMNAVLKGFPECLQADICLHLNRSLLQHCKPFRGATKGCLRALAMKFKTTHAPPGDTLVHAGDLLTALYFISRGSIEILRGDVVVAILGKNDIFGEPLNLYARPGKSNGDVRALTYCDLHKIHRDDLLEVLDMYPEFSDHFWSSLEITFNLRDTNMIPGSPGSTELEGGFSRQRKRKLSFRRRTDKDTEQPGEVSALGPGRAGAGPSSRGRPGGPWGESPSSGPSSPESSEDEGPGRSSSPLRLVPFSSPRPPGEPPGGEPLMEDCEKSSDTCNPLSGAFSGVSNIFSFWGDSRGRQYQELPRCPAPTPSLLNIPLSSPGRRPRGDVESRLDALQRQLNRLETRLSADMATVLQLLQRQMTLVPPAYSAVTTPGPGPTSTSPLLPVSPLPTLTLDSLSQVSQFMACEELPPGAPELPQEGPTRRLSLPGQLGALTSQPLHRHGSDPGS
# [3] = molecular target: T1, hERG (KCNH2); test: Inhibition of human ERG expressed in CHO cells at 1 uM by automated patch clamp electrophysiology assay relative to control; type: cell-based; conditions: CHO cells that express hERG
# [4] = molecular target: T1, hERG (KCNH2); test: Inhibition of human ERG expressed in CHO cells at 10 uM by automated patch clamp electrophysiology assay relative to control; type: cell-based; conditions: CHO cells that express hERG
# [5] = test system: Cryptosporidium parvum; test: Anti-cryptosporidial activity against Cryptosporidium parvum infected in HCT-8 cells assessed as rate of parasite elimination at 6 times of EC90 concentration pre-infected for 24 hrs followed by compound treatment; type: functional, organism-based
# [6] = Kinetic aqueous solubility of the compound in pH 7.4; type: physicochemical; conditions: buffer, read-out: Kinetic_solubility
# [7] = Metabolic stability in mouse liver microsomes assessed as half life at 2 uM measured up to 30 mins in presence of NADPH by LC-MS/MS analysis; type: ADME, Microsome; conditions: 0.5 h
# [8] = (§1) Efflux ratio of apparent permeability across basolateral to apical side over apical to basolateral side in […] cells at 10 uM after 2 hrs; type: ADME, cell-based; conditions: mdckii-mdr1, 2 h, 10 µM
# [9] = test system: HCT-8; test: Cytotoxicity against human HCT8 cells assessed as reduction in cell viability after 48 hrs by CellTiter aqueous assay; type: cell-based; conditions: hct-8, 48 h
# [10] = Metabolic stability in human liver microsomes assessed as half life at 2 uM measured up to 30 mins in presence of NADPH by LC-MS/MS analysis; type: ADME, Microsome; conditions: for t1/2: microsomes, 0.5 h, 2 µM
# [11] = test system: Cryptosporidium hominis; test: Anti-cryptosporidial activity against Cryptosporidium hominis infected in HCT-8 cells pre-infected for 3 hrs followed by compound treatment and measured after 45 hrs by fluorescence microscopy analysis; type: functional, organism-based
# [12] = molecular target: T1, hERG (KCNH2); test: Inhibition of human ERG expressed in CHO cells at 100 uM by automated patch clamp electrophysiology assay relative to control; type: cell-based; conditions: CHO cells that express hERG
# [13] = test system: MDR1 (P-gp); test: as §1; type: ADME, cell-based; conditions: MDCK-MDR1
# [14] = test system: Cryptosporidium parvum; test: Anti-cryptosporidial activity against Cryptosporidium parvum infected in HCT-8 cells assessed as rate of parasite elimination at above EC90 concentration pre-infected for 24 hrs followed by compound treatment; type: functional, organism-based
# [15] = Cmax in CD1 mouse jejunum at 1 mg/kg, iv measured upto 6 hrs by LC-MS/MS anlaysis; type: ADME, organism-based; set-up: route intravenous, dose 1 mg/kg, time <=6; conditions: in vivo
# [16] = AUC in CD1 mouse jejunum at 10 mg/kg, po measured upto 24 hrs by LC-MS/MS anlaysis; type: ADME, organism-based; set-up: route oral, dose 10 mg/kg, time <=24; conditions: in vivo
# [17] = AUC in CD1 mouse plasma at 10 mg/kg, po measured upto 24 hrs by LC-MS/MS anlaysis; type: ADME, organism-based; set-up: route oral, dose 10 mg/kg, time <=24; conditions: in vivo
# [18] = Half life in CD1 mouse jejunum at 1 mg/kg, iv measured upto 6 hrs by LC-MS/MS anlaysis; type: ADME, organism-based; conditions: in vivo
# [19] = Half life in CD1 mouse plasma at 1 mg/kg, iv measured upto 6 hrs by LC-MS/MS anlaysis; type: ADME, organism-based; conditions: in vivo
# [20] = AUC in CD1 mouse jejunum at 1 mg/kg, iv measured upto 6 hrs by LC-MS/MS anlaysis; type: ADME, organism-based; set-up: route intravenous, dose 1 mg/kg, time <=6; conditions: in vivo
# [21] = Cmax in CD1 mouse plasma at 10 mg/kg, po measured upto 24 hrs by LC-MS/MS anlaysis; type: ADME, organism-based; set-up: route oral, dose 10 mg/kg, time <=24; conditions: in vivo
# [22] = Oral bioavailability in CD1 mouse jejunum at 10 mg/kg measured upto 24 hrs by LC-MS/MS anlaysis; type: ADME, organism-based; conditions: in vivo
# [23] = molecular target: Voltage-gated inwardly rectifying potassium channel KCNH2 (Homo sapiens, UniProt Q12809); test: Antagonist activity at human ERG
# Sequence of Voltage-gated inwardly rectifying potassium channel KCNH2 (Q12809 whole entry): as above
# [24] = molecular target: T1, hERG (KCNH2); test: Antagonist activity at human ERG relative to control
# [25] = molecular target: CYP2C9 (Homo sapiens, UniProt P11712); test: Inhibition of CYP2C9 (unknown origin) at 10 uM relative to control; type: ADME
# Sequence of CYP2C9 (P11712 whole entry): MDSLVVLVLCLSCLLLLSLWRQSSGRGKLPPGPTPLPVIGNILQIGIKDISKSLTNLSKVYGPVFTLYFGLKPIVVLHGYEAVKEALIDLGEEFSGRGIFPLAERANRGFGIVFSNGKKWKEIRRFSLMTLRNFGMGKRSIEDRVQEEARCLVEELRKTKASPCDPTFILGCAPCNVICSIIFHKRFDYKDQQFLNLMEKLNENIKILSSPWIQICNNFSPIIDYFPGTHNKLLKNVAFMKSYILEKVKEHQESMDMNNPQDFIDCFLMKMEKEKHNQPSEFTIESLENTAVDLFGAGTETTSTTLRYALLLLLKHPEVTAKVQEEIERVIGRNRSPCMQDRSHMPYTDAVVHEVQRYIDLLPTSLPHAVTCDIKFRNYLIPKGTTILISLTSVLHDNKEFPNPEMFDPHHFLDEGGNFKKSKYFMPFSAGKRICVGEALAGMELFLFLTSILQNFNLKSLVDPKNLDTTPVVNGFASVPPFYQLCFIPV
# [26] = Cmax in CD1 mouse jejunum at 10 mg/kg, po measured upto 24 hrs by LC-MS/MS anlaysis; type: ADME, organism-based; set-up: route oral, dose 10 mg/kg, time <=24; conditions: in vivo
# [27] = Cmax in CD1 mouse plasma at 1 mg/kg, iv measured upto 6 hrs by LC-MS/MS anlaysis; type: ADME, organism-based; set-up: route intravenous, dose 1 mg/kg, time <=6; conditions: in vivo
# [28] = Protein binding in mouse plasma at 10 uM after 6 hrs by LC-MS/MS based equilibrium dialysis method; type: ADME, cell-free
# [29] = molecular target: CYP2C19 (Homo sapiens, UniProt P33261); test: Inhibition of CYP2C19 (unknown origin) at 10 uM relative to control; type: ADME
# Sequence of CYP2C19 (P33261 whole entry): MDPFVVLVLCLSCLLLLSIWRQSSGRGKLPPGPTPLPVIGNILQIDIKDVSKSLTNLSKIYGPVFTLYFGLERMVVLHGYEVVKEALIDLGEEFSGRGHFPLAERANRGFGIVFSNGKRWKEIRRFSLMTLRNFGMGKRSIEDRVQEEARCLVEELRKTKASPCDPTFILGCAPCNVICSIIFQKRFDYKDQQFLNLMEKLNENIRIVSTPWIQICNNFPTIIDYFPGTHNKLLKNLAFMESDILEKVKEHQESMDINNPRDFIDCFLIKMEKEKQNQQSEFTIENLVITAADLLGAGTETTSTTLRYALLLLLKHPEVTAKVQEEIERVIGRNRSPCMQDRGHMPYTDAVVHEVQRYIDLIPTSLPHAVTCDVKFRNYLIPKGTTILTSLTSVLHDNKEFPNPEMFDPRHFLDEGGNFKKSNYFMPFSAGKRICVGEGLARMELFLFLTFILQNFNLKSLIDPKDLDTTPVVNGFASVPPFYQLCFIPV
# [30] = test system: Cryptosporidium parvum; test: Anti-cryptosporidial activity against Cryptosporidium parvum infected in HCT-8 cells assessed as rate of parasite elimination at 6 times of EC90 concentration pre-infected for 24 hrs followed by compound treatment measured after 98 hrs; type: functional
# [31] = test system: Cryptosporidium parvum; test: Anti-cryptosporidial activity against Cryptosporidium parvum infected in NSG mouse assessed as reduction in parasite infection at 50 mg/kg, po administered twice daily for 11 days by qPCR analysis; type: functional; set-up: scale not given: the % may be the effect or the level left; conditions: time 11 day
# [32] = test system: Cryptosporidium parvum; test: Anti-cryptosporidial activity against Cryptosporidium parvum infected in NSG mouse assessed as reduction in parasite infection at 50 mg/kg, po administered twice daily for 21 days by qPCR analysis; type: functional, organism-based; conditions: time 21.0 day
# [33] = Protein binding in human plasma at 10 uM after 6 hrs by LC-MS/MS based equilibrium dialysis method; type: ADME, cell-free
# [34] = AUC in CD1 mouse plasma at 1 mg/kg, iv measured upto 6 hrs by LC-MS/MS anlaysis; type: ADME, organism-based; set-up: route intravenous, dose 1 mg/kg, time <=6; conditions: in vivo
# [35] = Volume of distribution in CD1 mouse jejunum at 1 mg/kg, iv measured upto 6 hrs by LC-MS/MS anlaysis; type: ADME, organism-based; conditions: in vivo
# [36] = Volume of distribution in CD1 mouse plasma at 1 mg/kg, iv measured upto 6 hrs by LC-MS/MS anlaysis; type: ADME, organism-based; conditions: in vivo
structure (smiles),measurement,setting,value
O=C(Cc1ccc(Cl)c(Cl)c1)N1CC=C(c2ccc3nncn3n2)CC1,EC50,[1],16 µM
same,inhibition at 10 µM,[2],9%
O=C(Nc1ccc(Cl)c(Cl)c1)N1CCN(c2ccc3nncn3n2)CC1,inhibition at 1 µM,[3],41%
same,inhibition at 10 µM,[4],87%
same,EC50,[1],0.55 µM
same,Activity,[5],Active
same,solubility kinetic,[6],1.8 µM
same,t1/2,[7],> 30 min
same,Ratio,[8],12
same,CC50,[9],> 100 µM
same,t1/2,[10],> 30 min
same,EC50,[11],0.56 µM
same,inhibition at 100 µM,[12],94%
same,inhibition at 10 µM,[2],56%
O=C(Nc1ccc(Cl)c(Cl)c1)N1CC=C(c2ccc3nncn3n2)CC1,EC50,[1],0.61 µM
same,solubility kinetic,[6],59 µM
same,"efflux ratio at 2 h, 10 µM",[13],6.5
same,half-life at 2 µM,[10]; liver microsomes,> 30 min
same,inhibition at 10 µM,[2],56%
CC1CN(c2ccc3nncn3n2)CCN1C(=O)Cc1ccc(Cl)c(Cl)c1 (stereo not drawn),EC50,[1],7.1 µM
O=C(Cc1ccc([N+](=O)[O-])cc1)N1CCN(c2ccc3nncn3n2)CC1,EC50,[1],2.5 µM
O=C(Nc1ccc(Cl)c(Cl)c1)N1CCCN(c2ccc3nncn3n2)CC1,EC50,[1],> 25 µM
O=C(Cc1ccc(F)cc1)N1CCN(c2ccc3nncn3n2)CC1,EC50,[1],0.86 µM
CC1CN(c2ccc3nncn3n2)CCN1C(=O)Nc1ccc(Cl)c(Cl)c1 (stereo not drawn),EC50,[1],32 µM
O=C(Cc1ccc(Cl)c(Cl)c1)N1CCC(Nc2ccc3nncn3n2)CC1,EC50,[1],> 25 µM
COc1ccc(CC(=O)N2CCN(c3ccc4nncn4n3)CC2)cc1,EC50,[1],17 µM
O=S(=O)(Cc1ccc(Cl)c(Cl)c1)N1CCN(c2ccc3nncn3n2)CC1,EC50,[1],> 25 µM
O=C(Cc1ccccc1)N1CCN(c2ccc3nncn3n2)CC1,EC50,[1],22 µM
same,inhibition at 10 µM,[2],4%
O=C(Cc1ccc(Cl)c(Cl)c1)N1CCCN(c2ccc3nncn3n2)CC1,EC50,[1],12 µM
O=C(Cc1ccc(Cl)c(Cl)c1)N1CCC(c2ccc3nncn3n2)CC1,EC50,[1],11 µM
same,Ratio,[8],9.8
same,t1/2,[10],7.8 min
CN(C(=O)N1CCN(c2ccc3nncn3n2)CC1)c1ccc(Cl)c(Cl)c1,EC50,[1],29 µM
O=C(NC1CCN(c2ccc3nncn3n2)CC1)c1ccc(Cl)c(Cl)c1,EC50,[1],12 µM
O=C(Cc1cccc(Cl)c1)N1CCN(c2ccc3nncn3n2)CC1,EC50,[1],3.5 µM
N#Cc1ccc(CC(=O)N2CCN(c3ccc4nncn4n3)CC2)cc1,EC50,[1],11 µM
O=C(Cc1cccc2ccccc12)N1CCN(c2ccc3nncn3n2)CC1,EC50,[1],17.1 µM
CC(=O)Oc1ccccc1C(=O)Nc1ncc([N+](=O)[O-])s1 [NITAZOXANIDE],EC50,[1],2 µM
same,Activity,[14],Active
O=C(Cc1ccc(Cl)c(Cl)c1)NC1CCN(c2ccc3nncn3n2)CC1,EC50,[1],> 25 µM
O=C(c1ccc(Cl)c(Cl)c1)N1CCN(c2ccc3nncn3n2)CC1,EC50,[1],> 25 µM
COc1cccc(CC(=O)N2CCN(c3ccc4nncn4n3)CC2)c1,EC50,[1],18 µM
O=C(Nc1ccc(Cl)cc1)N1CCN(c2ccc3nncn3n2)CC1,inhibition at 1 µM,[3],12%
same,inhibition at 10 µM,[4],48%
same,EC50,[1],2.1 µM
same,solubility kinetic,[6],200 µM
same,t1/2,[7],> 30 min
same,Ratio,[8],8.9
same,CC50,[9],> 100 µM
same,t1/2,[10],> 30 min
same,EC50,[11],6 µM
same,inhibition at 100 µM,[12],88%
same,inhibition at 10 µM,[2],8%
O=C(C(=O)N1CCN(c2ccc3nncn3n2)CC1)c1ccc(Cl)c(Cl)c1,EC50,[1],2.2 µM
O=C(Cc1ccc(Cl)cc1)N1CCN(c2ccc3nncn3n2)CC1,EC50,[1],0.66 µM
same,solubility kinetic,[6],10 µM
same,t1/2,[7],> 30 min
same,Ratio,[8],3
same,t1/2,[10],> 30 min
same,inhibition at 10 µM,[2],2%
O=C(Cc1ccc2ccccc2c1)N1CCN(c2ccc3nncn3n2)CC1,EC50,[1],14 µM
O=C(Cc1ccc(Cl)c(Cl)c1)N1CCN(c2ccc3nncn3n2)CC1,Cmax,[15],15000 ng/mL
same,inhibition at 1 µM,[3],19%
same,AUC,[16],240000 ng·h/mL
same,inhibition at 10 µM,[4],67%
same,AUC,[17],5200 ng·h/mL
same,t1/2,[18],324 min
same,t1/2,[19],132 min
same,AUC,[20],55000 ng·h/mL
same,Cmax,[21],1500 ng/mL
same,Activity,[5],Active
same,F,[22],1%
same,solubility kinetic,[6],18 µM
same,EC50,[23],7.7 µM
same,Emax,[24],79%
same,t1/2,[7],> 30 min
same,inhibition at 10 µM,[25],31%
same,Cmax,[26],36000 ng/mL
same,Cmax,[27],17000 ng/mL
same,PPB,[28],92.4%
same,inhibition at 10 µM,[29],44%
same,CC50,[9],> 100 µM
same,t1/2,[10],> 30 min
same,inhibition at 100 µM,[12],94%
same,Activity,[30],99.9%
same,Activity,[31],>99%
same,inhibition at 10 µM,[2],11%
same,Activity,[32],Active
same,PPB,[33],97.8%
same,AUC,[34],50000 ng·h/mL
same,Vd,[35],0.13 L/kg
same,Vd,[36],0.062 L/kg
O=C(Nc1ccc(Cl)c(Cl)c1)N1CCC(c2ccc3nncn3n2)CC1,EC50,[1],7 µM
same,Ratio,[8],6.6
same,t1/2,[10],> 30 min
O=C(N1CCN(c2ccc3nncn3n2)CC1)C1(c2ccc(Cl)c(Cl)c2)CC1,EC50,[1],8.5 µM
O=C(N1CCN(c2ccc3nncn3n2)CC1)C(F)(F)c1ccc(Cl)c(Cl)c1,EC50,[1],2.3 µM
